Where two headings read alike, the source gives them in different places.
Experiments:
[1] = Cytotoxicity in HeLa cells without addition of OC43 virus (in parallel); details: human, HeLa cells, without OC43 virus
[2] = test system: human beta-coronavirus OC43; experiment: OC43 Coronavirus Assay in HeLa cells (antiviral, cytopathic effect, cell-titer-glo); type: cell-based; details: Betacoronavirus 1, OC43, HeLa, Table B, OC43 coronavirus in HeLa cells, read-out: EC50
[3] = target: SARS-Cov-2 3CLpro (Severe acute respiratory syndrome coronavirus 2, UniProt P0DTD1); experiment: biochemical; details: Table A, class symbols, read-out: SARS-Cov-2 (IC50)
[4] = test system: SARS-CoV-2 B.1.1.7 lineage; experiment: microbe, parasite or virus in culture; type: cell-based; details: Severe acute respiratory syndrome coronavirus 2, Table C, SARS-CoV-2 B.1.1.7 in A549-dual_ACE2_TMPRSS2 cells, read-out: A549-dual_ACE2_TMPRSS2 (EC50)
[5] = in vitro; details: human

SMILES | CC50 at 6 days [1] | EC50 ([2]; class symbols) | IC50 [3] | EC50 ([4]; class symbols) | CC50 [5] | EC50 ([2]; cells given as a bound) | EC50 ([4]; cells given as a bound)
C[C@H](NC(=O)C(F)(F)F)C(=O)N(C)[C@@H](CC(C)(C)F)C(=O)N1C[C@@]2(C[C@H]1C#N)Oc1cc(F)cc(F)c1NC2=O [Compound 61] | > 10000 nM | 1000 to 10000 nM | < 20 nM | 100 to 1000 nM | > 1000 nM |  | 
C[C@H](NC(=O)C(F)(F)F)C(=O)N(C)[C@@H](CC(C)(C)C)C(=O)N1C[C@@]2(C[C@H]1C#N)Oc1cc(F)cc(F)c1NC2=O [Compound 62] | > 10000 nM | 100 to 1000 nM | < 20 nM | 100 to 1000 nM | > 1000 nM |  | 
CC(C)C[C@H](NC(=O)C(F)(F)F)C(=O)N(C)[C@@H](CC(C)C)C(=O)N1C[C@@]2(C[C@H]1C#N)Oc1cc(F)cc(F)c1NC2=O [Compound 63] | > 10000 nM | 100 to 1000 nM | < 20 nM | 100 to 1000 nM | > 1000 nM |  | 
CC(C)C[C@@H](C(=O)N1C[C@@]2(C[C@H]1C#N)Oc1cc(F)cc(F)c1NC2=O)N(C)C(=O)[C@H](CC(C)(C)F)NC(=O)C(F)(F)F [Compound 64] | > 10000 nM | < 100 nM | < 20 nM | 100 to 1000 nM | > 1000 nM |  | 
CC(C)C[C@@H](C(=O)N1C[C@@]2(C[C@H]1C#N)Oc1cccnc1NC2=O)N(C)C(=O)[C@H](C)NC(=O)C(F)(F)F [Compound 65] | > 10000 nM | 100 to 1000 nM | < 20 nM | 100 to 1000 nM | > 1000 nM |  | 
CN(C(=O)[C@H](CC1CC1)NC(=O)C(F)(F)F)[C@@H](CC1CC1)C(=O)N1C[C@@]2(C[C@H]1C#N)Oc1cccnc1NC2=O [Compound 66] | > 10000 nM | < 100 nM | < 20 nM | < 100 nM | > 1000 nM |  | 
CN(C(=O)[C@H](CC1CC1)NC(=O)C(F)(F)F)[C@@H](CC1CC1)C(=O)N1C[C@@]2(C[C@H]1C#N)Oc1cc(F)cnc1NC2=O [Compound 67] | > 10000 nM | < 100 nM | < 20 nM | 100 to 1000 nM | > 1000 nM |  | 
CC(C)C[C@@H](C(=O)N1C[C@@]2(C[C@H]1C#N)Oc1cc(F)cc(F)c1NC2=O)N(C)C(=O)[C@H](Cc1ccc(F)cc1)NC(=O)C(F)(F)F [Compound 69] | > 10000 nM |  | < 20 nM | 100 to 1000 nM | > 1000 nM | > 10000 nM | 
COC(=O)N[C@@H](C)C(=O)N(C)[C@@H](CC(C)C)C(=O)N1C[C@@]2(C[C@H]1C#N)Oc1cc(F)cc(F)c1NC2=O [Compound 70] | > 10000 nM |  | < 20 nM | 100 to 1000 nM | > 1000 nM | > 10000 nM | 
CC(C)C[C@@H](C(=O)N1C[C@@]2(C[C@H]1C#N)Oc1cc(F)cc(F)c1NC2=O)N(C)C(=O)[C@H](C)NC(=O)C1(F)CC1 [Compound 71] | > 10000 nM | 100 to 1000 nM | < 20 nM | 100 to 1000 nM | > 1000 nM |  | 
COC[C@H](NC(=O)C(F)(F)F)C(=O)N(C)[C@@H](CC(C)C)C(=O)N1C[C@@]2(C[C@H]1C#N)Oc1cc(F)cc(F)c1NC2=O [Compound 72] | > 10000 nM | 100 to 1000 nM | < 20 nM | 100 to 1000 nM | > 1000 nM |  | 
CN(C(=O)[C@H](CC1CC1)NC(=O)C(F)(F)F)[C@@H](CC1CC1)C(=O)N1C[C@@]2(C[C@H]1C#N)Oc1cnccc1NC2=O [Compound 73] | > 10000 nM | 100 to 1000 nM | 20 to 200 nM | 100 to 1000 nM | > 1000 nM |  | 
CN(C(=O)c1cc2c(F)cc(F)c(F)c2[nH]1)[C@@H](CC1CC1)C(=O)N1C[C@@]2(C[C@H]1C#N)Oc1cc(F)cc(F)c1NC2=O [Compound 74] | > 10000 nM |  | 20 to 200 nM | 100 to 1000 nM | > 1000 nM | > 10000 nM | 
CN(C(=O)[C@H](CC1CC1)NC(=O)C(F)(F)F)[C@@H](CC1CC1)C(=O)N1C[C@@]2(C[C@H]1C#N)Oc1ccccc1CNC2=O [Compound 81, (S)—N—((S)-1-((2R,5'S)-5′-cyano-3-oxo-4,5-dihydro-3H-spiro[benzo[f][1,4]oxazepine-2,3′-pyrrolidin]-1′-yl)-3-cyclopropyl-1-oxopropan-2-yl)-3-cyclopropyl-N-methyl-2-(2,2,2-trifluoroacetamido)propenamide] | > 10000 nM | < 100 nM | < 20 nM | < 100 nM | > 1000 nM |  | 
CN(C(=O)[C@H](CC1CC1)NC(=O)C(F)(F)F)[C@@H](CC1CC1)C(=O)N1C[C@]2(C[C@H]1C#N)C(=O)Nc1ccccc1S2(=O)=O [Compound 82] | > 10000 nM | 100 to 1000 nM | 20 to 200 nM |  | > 1000 nM |  | > 1000 nM
C[C@@H](NC(=O)C(F)(F)F)C(=O)N(C)[C@@H](CC1CC1)C(=O)N1C[C@@]2(C[C@H]1C#N)Oc1cc(F)cc(F)c1NC2=O [Compound 83] | > 10000 nM | 100 to 1000 nM | 20 to 200 nM | < 100 nM | > 1000 nM |  | 

SMILES | CC50 at 6 days [1] | EC50 ([2]; class symbols) | IC50 [3] | EC50 ([4]; class symbols) | CC50 [5] | EC50 ([2]; cells given as a bound) | EC50 ([4]; cells given as a bound)
C[C@H](NC(=O)C(F)(F)F)C(=O)N(C)[C@@H](CC1CC1)C(=O)N1C[C@@]2(C[C@H]1C#N)Oc1cccnc1NC2=O [Compound 84] | > 10000 nM | 1000 to 10000 nM | < 20 nM | < 100 nM | > 1000 nM |  | 
CN(C(=O)[C@H](CC(F)(F)F)NC(=O)C(F)(F)F)[C@@H](CC1CC1)C(=O)N1C[C@@]2(C[C@H]1C#N)Oc1cc(F)cc(F)c1NC2=O [Compound 85] | > 10000 nM | 100 to 1000 nM | < 20 nM | < 100 nM | > 1000 nM |  | 
CN(C(=O)[C@H](CC(F)F)NC(=O)C(F)(F)F)[C@@H](CC1CC1)C(=O)N1C[C@@]2(C[C@H]1C#N)Oc1cc(F)cc(F)c1NC2=O [Compound 86] | > 10000 nM | 100 to 1000 nM | < 20 nM | < 100 nM | > 1000 nM |  | 
CN(C(=O)[C@H](CC1CCC1)NC(=O)C(F)(F)F)[C@@H](CC1CC1)C(=O)N1C[C@@]2(C[C@H]1C#N)Oc1cc(F)cc(F)c1NC2=O [Compound 87] | > 10000 nM | 100 to 1000 nM | < 20 nM | < 100 nM | > 1000 nM |  | 
CC[C@H](NC(=O)C(F)(F)F)C(=O)N(C)[C@@H](CC1CC1)C(=O)N1C[C@@]2(C[C@H]1C#N)Oc1cc(F)cc(F)c1NC2=O [Compound 88] | > 10000 nM | 100 to 1000 nM | < 20 nM | < 100 nM | > 1000 nM |  | 
CN(C(=O)[C@H](CC(C)(C)C)NC(=O)C(F)(F)F)[C@@H](CC1CC1)C(=O)N1C[C@@]2(C[C@H]1C#N)Oc1cc(F)cc(F)c1NC2=O [Compound 89] | > 10000 nM | < 100 nM | < 20 nM | < 100 nM | > 1000 nM |  | 
CN(C(=O)[C@@H](Cc1ccc(F)cc1)NC(=O)C(F)(F)F)[C@@H](CC1CC1)C(=O)N1C[C@@]2(C[C@H]1C#N)Oc1cc(F)cc(F)c1NC2=O [Compound 90] | > 10000 nM | < 100 nM | < 20 nM | < 100 nM | > 1000 nM |  | 
CN(C(=O)C(C)(C)NC(=O)C(F)(F)F)[C@@H](CC1CC1)C(=O)N1C[C@@]2(C[C@H]1C#N)Oc1cc(F)cc(F)c1NC2=O [Compound 92] | > 10000 nM | < 100 nM | 200 to 2000 nM | < 100 nM | > 1000 nM |  | 
CN1C(=O)[C@]2(C[C@@H](C#N)N(C(=O)[C@H](CC3CC3)N(C)C(=O)[C@H](CC3CC3)NC(=O)C(F)(F)F)C2)Oc2cc(F)cc(F)c21 [Compound 93] | > 10000 nM | < 100 nM | < 20 nM | < 100 nM | > 1000 nM |  | 
C[C@H](NC(=O)C(F)(F)C(F)(F)F)C(=O)N(C)[C@@H](CC1CC1)C(=O)N1C[C@@]2(C[C@H]1C#N)Oc1cc(F)cc(F)c1NC2=O [Compound 95] | > 10000 nM | 1000 to 10000 nM | < 20 nM | < 100 nM | > 1000 nM |  | 
CN(C(=O)c1cc2c(F)cc(F)c(F)c2[nH]1)[C@@H](CC1CC1)C(=O)N1C[C@@]2(C[C@H]1C#N)Oc1cccnc1NC2=O [Compound 96] | > 10000 nM | 1000 to 10000 nM | < 20 nM | 100 to 1000 nM | > 1000 nM |  | 
CN(C(=O)c1cc2c(F)cc(F)c(F)c2[nH]1)[C@@H](CC1CC1)C(=O)N1C[C@@]2(C[C@H]1C#N)Oc1cccc(F)c1NC2=O [Compound 97] | > 10000 nM | < 100 nM | < 20 nM | 100 to 1000 nM | > 1000 nM |  | 
C[C@H](NC(=O)C(F)(F)F)C(=O)N(C)[C@@H](CC1CC1)C(=O)N1C[C@@]2(C[C@H]1C#N)Oc1cccc(F)c1NC2=O [Compound 98] | > 10000 nM | 100 to 1000 nM | < 20 nM | < 100 nM | > 1000 nM |  | 
C[C@H](NC(=O)C(F)(F)F)C(=O)N(C)[C@@H](CC1CC1)C(=O)N1C[C@@]2(C[C@H]1C#N)Oc1c(cccc1C1CC1)NC2=O [Compound 99] | > 10000 nM | 100 to 1000 nM | < 20 nM | < 100 nM | > 1000 nM |  | 
CC(C)C[C@](C)(NC(=O)C(F)(F)F)C(=O)N(C)[C@@H](CC1CC1)C(=O)N1C[C@@]2(C[C@H]1C#N)Oc1cc(F)cc(F)c1NC2=O [Compound 100] | > 10000 nM | < 100 nM | 20 to 200 nM | 100 to 1000 nM | > 1000 nM |  | 
